Measurements: patent EP4635513A1, “NEAR-INFRARED PHOTOSENSITIZER THAT CAN BE ACTIVATED IN SLIGHTLY ACIDIC TUMOR ENVIRONMENT AND PREPARATION METHOD THEREFOR AND USE THEREOF” (Shenzhen University, priority 2024, dated 2025)

Tests used:
[1] = pH-response fluorescence spectra; assay type: physicochemical; conditions: pH dependence; for fluorescence emission intensity in the near-infrared region: excitation 760 nm (LET-H, LET-I), 660 nm (LET-Hcy-N); for fluorescence intensity in the visible light region: excitation 420 nm, PBS buffer with 1% DMSO
Procedure: The photosensitizers prepared in the Embodiments 1-8 were individually dissolved in dimethyl sulfoxide to prepare 10 mM photosensitizer stock solution, which were stored at 4 °C for subsequent use. All experiments were conducted in PBS buffer (1 ×) containing 1% DMSO. 2 µL of the photosensitizer stock solution was added to 2 mL of PBS buffer solutions at different pH values. Absorption spectra and fluorescence spectra of each photosensitizer under various pH conditions were recorded using ultraviolet-visible spectrophotometry and fluorescence spectrophotometry.

[2] = Singlet oxygen detection by ESR/EPR spectroscopy with TEMP as trapping agent; assay type: physicochemical; conditions: near-infrared irradiation
Procedure: Singlet oxygen generation and characterization were further analyzed by electron spin resonance (ESR) spectroscopy. Using photosensitizers LET-H' and LET-I' as examples, 2,2,6,6-tetramethyl-4-piperidone hydrochloride (TEMP) was employed as the singlet oxygen trapping agent. Two groups of photosensitizer stock solutions were prepared and diluted with TEMP added, one group remained untreated, while another was irradiated with the near-infrared laser, and a blank control group was also prepared for comparison.

[3] = Singlet oxygen generation assay with DPBF as trapping agent; assay type: physicochemical; conditions: 808 nm laser irradiation, 0.2 W cm^-2; DMSO
Procedure: The photosensitizers LET-R (R = H, Cl, Br, I) prepared in the Embodiments 1-4 were assessed. 1,3-Diphenylisobenzofuran (DPBF) was selected as a singlet oxygen trapping agent to determine a singlet oxygen generation capability of each photosensitizer molecule.
A 1 mM DPBF stock solution was first prepared for use. An appropriate volume of freshly prepared DPBF solution was then added to DMSO to adjust the absorbance at 415 nm to approximately 1.0, followed by addition of photosensitizer solution at appropriate concentration. The ultraviolet-visible absorption spectra were measured after different irradiation times with a near-infrared laser. The singlet oxygen generation capability of each photosensitizer was evaluated by monitoring the absorbance changes of DPBF at 415 nm.

[4] = Singlet oxygen quantum yield with ICG as reference standard; assay type: physicochemical; conditions: DPBF in dichloromethane, near-infrared laser
Procedure: Using indocyanine green (ICG) as a reference standard, the singlet oxygen quantum yields of photosensitizers LET-R (R = H, Cl, Br, I) were determined. At first, an appropriate volume of freshly prepared DPBF solution was added to dichloromethane to adjust the absorbance at 415 nm to approximately 1.0, followed by addition of test solution (photosensitizer or ICG) at optimized concentration. Samples were then irradiated with a near-infrared laser, and time-dependent ultraviolet-visible spectral changes were recorded. The singlet oxygen quantum yield was calculated using Formula (1): ΦΔ = […] [formula]
ΦΔ represents the singlet oxygen quantum yield of test molecules, and ΦICG represents the singlet oxygen quantum yield of ICG. "ps" represents the photosensitizer under investigation, while k represents a slope of DPBF absorbance decay at 415 nm over time. And correction factor F is calculated using Formula (2): […] [formula]
In Formula (2), OD represents the absorbance of solutions at a laser wavelength.

[5] = system: murine mammary carcinoma cells (4T1 cell line); experiment: Photodynamic efficacy at cellular level, cell viability assay; assay type: cell-based; conditions: Mus musculus, light or radiation study, 4T1 cells, 6 hours incubation, 808 nm (0.2 W/cm^2) laser, 20 minutes irradiation
Procedure: The photodynamic therapeutic efficacy was evaluated using standardized […] assay protocols to assess the effects of photosensitizer molecules on viability of murine mammary carcinoma cells (4T1 cell line).
Cell culture was performed using Dulbecco's Modified Eagle Medium (DMEM) high glucose supplemented with 10% fetal bovine serum (FBS) and 1% antibiotic-antimycotic solution (penicillin-streptomycin mixture), and maintained in a humidified incubator at 37 °C with 5% CO2. Experimental procedures were initiated when cell density reached 80% confluency. Using photosensitizers LET-H and LET-I as examples, 4T1 cells were seeded in 96-well plates (100 µL, 5×10^3 cells/well) and cultured for 24 hours, then original medium was discarded and replaced with medium containing photosensitizer molecules at a concentration of 20 µM. After 6 hours of incubation, the medium in each well was replaced with fresh medium, and irradiated with an 808 nm (0.2 W/cm^2) laser for different times (0, 5, 10 and 20 min), and placed back in cell culture incubator for continued incubation. After irradiation, the plates were returned to the incubator for continued culture. After 12 hours of incubation, 10 µL of CCK-8 solution was added to each well, and the plates were incubated for one additional hour. Absorbance was subsequently measured at 450 nm using a microplate reader.

| fluorescence intensity in the visible light region [1] | Compound | fluorescence emission intensity in the near-infrared region [1] | EPR spectrum, singlet oxygen production [2] | singlet oxygen generation capability (DPBF degradation, absorbance at 415 nm) [3] | singlet oxygen quantum yield [4] | viability at 20 µM [5] [%] |
| --- | --- | --- | --- | --- | --- | --- |
| – | CCN(CC)c1ccc2c(c1)OC1=C(C=CC34OCCCN3c3ccccc3C4(C)C)CCCC1=C2 (stereo not shown) [LET-Hcy-N] | enhanced fluorescence emission intensity at higher pH values | – | – | – | – |
| decreased with increasing pH | CC1(C)C(=CC=C2CCCC(C=CC34OCCCN3c3ccccc3C4(C)C)=C2Cl)N(CCCO)c2ccccc21 (stereo not shown) [LET-H] | enhanced fluorescence emission intensity at higher pH values | three isointense paramagnetic resonance peaks (1:1:1) | – | – | – |
| decreased with increasing pH | CC1(C)C(=CC=C2CCCC(C=CC34OCCCN3c3ccc(I)cc3C4(C)C)=C2Cl)N(CCCO)c2ccc(I)cc21 (stereo not shown) [LET-I] | enhanced fluorescence emission intensity at higher pH values | three isointense paramagnetic resonance peaks (1:1:1) | superior singlet oxygen generation efficiency | superior singlet oxygen generation capability | < 30 |
